Molecules are shown by their SMILES. ≈ marks a conversion by molar mass, not a printed value.

The MIC is the lowest concentration found to suppress growth. The term inhibition denotes the percentage by which the read-out fell short of the control. Low values mean a response near the control, high ones a response far below the control.

Format in all cases: functional
For assay [1], the system named is Mycolicibacterium smegmatis. The assay can be described thus: Antimycobacterial activity against Mycobacterium smegmatis. To be noted: for MIC: Mycolicibacterium smegmatis.
A further assay concerns Mycolicibacterium phlei. Kind of assay: Antimycobacterial activity against Mycobacterium phlei.
The test system of assay [2] is Mycobacterium tuberculosis. Kind of assay: Antimycobacterial activity against Mycobacterium tuberculosis H37Rv at 50 ug/ml relative to control.
A further assay relates to Mycobacterium sp. The assay can be described thus: Antimycobacterial activity against Mycobacterium sp.
Another assay deals with Mycobacterium kansasii. Kind of assay: Antimycobacterial activity against Mycobacterium kansasii.
The test system of assay [3] is Mycobacterium tuberculosis. The assay can be described thus: Antimycobacterial activity against Mycobacterium tuberculosis. To be noted: Mycobacterium tuberculosis.
In a further assay the test system is Mycobacterium avium. The assay can be described thus: Antimycobacterial activity against Mycobacterium avium.
Assay [4] has as its system Mycolicibacterium fortuitum. The assay can be described thus: Antimycobacterial activity against Mycobacterium fortuitum.
Assay [5] deals with Mycobacterium tuberculosis. Kind of assay: Antimycobacterial activity against Mycobacterium tuberculosis H37Rv.
The subject of assay [6] is Mycobacterium tuberculosis. Kind of assay: Antimycobacterial activity against Mycobacterium tuberculosis H37Rv by microplate alamar blue assay. A general note: The colour change of resazurin is a common sign of viable cells or microbes.
The next assay concerns Mycobacterium. The assay can be described thus: Antimycobacterial activity against Mycobacterium.
For assay [7], the system named is Mycobacterium tuberculosis. The assay can be described thus: Antimycobacterial activity against Mycobacterium tuberculosis in presence of isoniazid.
Assay [8] relates to Mycobacterium tuberculosis. The assay can be described thus: Antimycobacterial activity against Mycobacterium tuberculosis in presence of ethambutol.
In assay [9] the test system is Mycobacterium tuberculosis. The assay can be described thus: Antimycobacterial activity against Mycobacterium tuberculosis rv0678.
The next assay deals with Mycolicibacterium vaccae. Kind of assay: Antimycobacterial activity against Mycobacterium vaccae.

Consider `O=C1C=CC2=NC=CC3c4ccccc4N1C23` (stereo not drawn), for which the MIC (in assay [1]; in the assay on Mycolicibacterium phlei) was 8 µg/mL (≈ 36 µM) each time.

With `C/C=C1\CN2CC[C@@H]1[C@](CO)(C(=O)OC)c1[nH]c3ccccc3c1C2`, the inhibition at 50 µg/mL in [2] is 50%.

As for `c1ccc2c(c1)CC1NCCc3cc4c(c-2c31)OCO4` (stereo not drawn), in the assay on Mycobacterium sp., it took 12 µg/mL (≈ 45.2 µM) to inhibit growth (MIC).

`Oc1ccc2c(c1)CC1NCCc3cc4c(c-2c31)OCO4` (stereo not drawn) yielded a minimum inhibitory concentration (MIC) in the assay on Mycobacterium sp. of 6 µg/mL (≈ 21.3 µM).

`O=CNCCCCC(NC(=O)C1COC(c2ccccc2O)=N1)C(=O)O` (stereo not drawn) [TRANSVALENCIN Z] displayed an MIC in assay [1] of 0.125 µg/mL (≈ 0.344 µM).

In assay [2], `COC(=O)[C@@]12COCC=C3C[N+]([O-])(CC[C@@H]31)Cc1c2[nH]c2ccccc12` had an inhibition at 50 µg/mL of 50%.

Turning to `C1=C\CCCC[C@@H]2CN3CCCC/C=C\CCCC[C@H]4C[C@H](CN(CCCCCC/1)C4)[C@H]2CC3`, the IC in assay [1] stood at 1 µg/mL.

The molecule `OC1CCCC/C=C\CCCC[C@@H]2CN3CCCC/C=C\CCCC[C@H]4C[C@H](CN(C1)C4)[C@H]2CC3` (stereo partly drawn) gave an IC in assay [1] of 12.5 µg/mL.

Regarding `c1cncc(-c2ncc(-c3ccc4c(c3)OCO4)o2)c1`, the MIC (in the assay on Mycobacterium kansasii; in [3]; against Mycobacterium avium) was 25 µg/mL (≈ 93.9 µM) throughout.

Take `N[C@@H]1CONC1=O` [CYCLOSERINE]: the minimal inhibitory concentration (MIC) came to 3.12 µg/mL (≈ 30.6 µM) in assay [4]; 3.12 µg/mL (≈ 30.6 µM) in assay [3]; 3.12 µg/mL (≈ 30.6 µM) with Mycobacterium avium; 3.12 µg/mL (≈ 30.6 µM) in [1]; 12.5 µg/mL (≈ 122 µM) in assay [5].

In turn, `O=C(/C=C/C=C/c1ccc2c(c1)OCO2)N1CCCCC1` [PIPERINE] yielded a minimum inhibitory concentration (MIC) in assay [1] of 128 µg/mL (≈ 449 µM).

On to `CCCCCCCCC[C@@H]1C[C@@H]2CC[C@H]3[C@@H](C(=O)O[C@H](C)CCCCCCC[C@@H]4C[C@@H]5CC[C@@H]6C[C@H](C)NC(=N4)N65)[C@@H](C)N=C(N1)N23`, for which, in [6], inhibition of growth (MIC) required 3.18 µg/mL (≈ 4.87 µM).

Molecule `COc1ccc2[nH]c3ccc(C=O)cc3c2c1` displayed an MIC in assay [6] of 15.6 µg/mL (≈ 69.3 µM).

Regarding `COC(=O)[C@@]1(c2cc3ccccc3[nH]2)COCC=C2CN(C)CC[C@@H]21` [6,7-SECO-ANGUSTILOBINE B], the inhibition at 50 µg/mL in assay [2] is 50%.

Molecule `C1=C\CCCCN2C[C@H]3CCCC/C=C\CCCCN4CC[C@@H]([C@H](CCCCCC/1)C4)[C@H](C3)C2` returned an IC in [1] of 2.5 µg/mL.

The molecule `O=C1c2ccccc2-c2nccc3ccnc1c23` [SAMPANGINE] had a minimal inhibitory concentration (MIC) in the assay on Mycobacterium sp. of 0.78 µg/mL (≈ 3.36 µM).

In assay [2], `C=C(c1cc2ccccc2[nH]1)[C@H]1CCN(C)C/C1=C\CO` returned an inhibition at 50 µg/mL of 50%.

In the case of `O=Cc1ccc2[nH]c3ccccc3c2c1`, the minimal inhibitory concentration (MIC) is 100 µg/mL (≈ 512 µM) in assay [3] and 42.3 µg/mL (≈ 217 µM) in assay [6].

With `COC(=O)c1cc2c(s1)-c1nccc3c1c(nc1ccccc13)C2=O`, the MIC against Mycobacterium turned out to be 0.58 µM (≈ 0.201 µg/mL).

In the assay on Mycobacterium sp., `COc1ccc2c(c1)CC1NCCc3cc4c(c-2c31)OCO4` (stereo not drawn) yielded an MIC of 12 µg/mL (≈ 40.6 µM).

Molecule `CC(C)=CCOc1ccc(C2=C(Cc3ccccc3)C(=O)N(O)C2=O)cc1` had a minimal inhibitory concentration (MIC) in the assay on Mycolicibacterium phlei of 25 µg/mL (≈ 68.8 µM).

In the assay on Mycobacterium sp., `Cc1ccnc2c1C(=O)c1ccccc1C2=O` [CLEISTOPHOLINE] displayed an MIC of 12.5 µg/mL (≈ 56 µM).

In the case of `COc1ccc2[nH]c3cc(O)c(C=O)cc3c2c1`, the minimal inhibitory concentration (MIC) in assay [6] was found to be 14.3 µg/mL (≈ 59.3 µM).

In the assay with Mycobacterium, `CS1(C2=CC(=O)C3=C(C2)c2nccc4cccc(c24)N3)CCC(=O)OC1` (stereo not drawn) displayed an MIC of 2.1 µM (≈ 0.77 µg/mL).

As for `COc1ccc2cc1Oc1ccc(cc1)C[C@H]1c3cc(c(OC)cc3CCN1C)Oc1c(OC)c(OC)cc3c1[C@H](C2)N(C)CC3` [FANCHININ], the MIC in [7] and in [8] was 0.25 µg/mL in each case.

In assay [6], `CC(C)=CCc1c(O)ccc2[nH]c3ccc(C=O)cc3c12` [MICROMELINE] displayed an MIC of 31.5 µg/mL (≈ 113 µM).

Regarding `CC(C)/N=c1\cc2n(-c3ccc(Cl)cc3)c3ccccc3nc-2cc1Nc1ccc(Cl)cc1` [CLOFAZIMINE], the MIC in assay [9] is 0.12 µg/mL (≈ 0.253 µM).

`COC(=O)c1cc2c(o1)-c1nccc3c1c(nc1ccccc13)C2=O` yielded a minimum inhibitory concentration (MIC) with Mycobacterium of 0.61 µM (≈ 0.201 µg/mL).

For `CC/C=C(\C)C[C@H](C)C[C@H](C)/C(O)=C1/C(=O)N[C@@H](Cc2ccc(O)cc2)C1=O`, in the assay on Mycolicibacterium vaccae, inhibition of growth (MIC) required 6.25 µg/mL (≈ 16.2 µM).

Values taken from ChEMBL document CHEMBL5260811, “Drug development against tuberculosis: Impact of alkaloids” (Eur J Med Chem, 2017).
